Columns and labels:
Assay type in all cases: in vivo
Monochoria vaginalis [1] = assay: Test Example 11: herbicidal effect test by soil treatment in paddy field; details: 120 g/10a active ingredient, 14 days after treatment
How it was run: (§1)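 Pre-emergence paddy test, 120 g a.i./10 are, emulsifiable concentrate diluted in water and added dropwise to ~3 cm flood water right after sowing (30 seeds/species, 0–1 cm depth, fertilized puddled soil). Greenhouse; 2 replicates; dry-weight suppression (%) vs untreated, day 14.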

Echinochloa crus-galli [2] = assay: as above; details: 120 g/10a active ingredient, 14 days after treatment
How it was run: as §1

Lindernia pyxidaria [3] = assay: as above; details: 120 g/10a active ingredient, 14 days after treatment
How it was run: as §1

Scirpus juncoides [4] = assay: as above; details: 120 g/10a active ingredient, 14 days after treatment
How it was run: as §1

Monochoria vaginalis [5] = assay: Test Example 12: herbicidal effect test by treatment during growing period in paddy field; details: 120 g/10a; treatment seven days after sowing in flooded paddy pot; assessed 14 days after treatment
How it was run: (§2)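 Water-diluted emulsifiable concentrate added dropwise to flooded pots (~3 cm water) 7 d after sowing; rate 120 g active ingredient per 10 are. Weeds grown from 30 seeds each in puddled paddy soil under greenhouse conditions. Dry-weight suppression rate relative to untreated plots determined 14 d after treatment, duplicates.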

Echinochloa crus-galli [6] = assay: as above; details: 120 g/10a; treatment seven days after sowing in flooded paddy pot; assessed 14 days after treatment
How it was run: as §2

Lindernia pyxidaria [7] = assay: as above; details: 120 g/10a; treatment seven days after sowing in flooded paddy pot; assessed 14 days after treatment
How it was run: as §2

Scirpus juncoides [8] = assay: as above; details: 120 g/10a; treatment seven days after sowing in flooded paddy pot; assessed 14 days after treatment
How it was run: as §2

Row | SMILES | Weed suppression rate (%) Monochoria vaginalis (Monochoria vaginalis [1]) | Weed suppression rate (%) Echinochloa crus-galli (Echinochloa crus-galli [2]) | Weed suppression rate (%) Lindemia pyxidaria (Lindernia pyxidaria [3]) | Weed suppression rate (%) Scirpus juncoides (Scirpus juncoides [4]) | Weed suppression rate (%) Monochoria vaginalis (Monochoria vaginalis [5]) | Weed suppression rate (%) Echinochloa crus-galli (Echinochloa crus-galli [6]) | Weed suppression rate (%) Lindemia pyxidaria (Lindernia pyxidaria [7]) | Weed suppression rate (%) Scirpus juncoides (Scirpus juncoides [8])
1 | CC(C)N(C(=O)n1cnn(S(=O)(=O)c2cccs2)c1=O)c1c(F)c(F)cc(F)c1F [Compound 11-1027] | 90% | 100% | 100% | 100% | 90% | 100% | 80% | 100%
2 | CC(C)N(C(=O)n1cnn(S(=O)(=O)c2cccs2)c1=O)c1ccc(Cl)cc1Br [Compound 11-1034] | 70% | 100% | 90% | 100% | 70% | 90% | 70% | 70%
3 | Cc1ccc(N(C(=O)n2cnn(S(=O)(=O)c3cccs3)c2=O)C(C)C)c(F)c1 [Compound 11-1036] | 90% | 90% | 90% | 90% | 80% | 90% | 80% | 90%
4 | CC(C)N(C(=O)n1cnn(S(=O)(=O)c2cccs2)c1=O)c1ccc(C(F)(F)F)cc1Cl [Compound 11-1042] | 80% | 90% | 80% | 90% | 80% | 90% | 80% | 90%
5 | CC(C)N(C(=O)n1cnn(S(=O)(=O)c2cccs2)c1=O)c1ccc(C#N)cc1Cl [Compound 11-1044] | 90% | 90% | 90% | 90% | 80% | 90% | 80% | 90%
6 | CC(C)N(C(=O)n1cnn(S(=O)(=O)N(C)C)c1=O)c1ccccc1F [Compound 11-1054] | 80% | 90% | 80% | 90% | 80% | 90% | 80% | 90%
7 | CC(C)N(C(=O)n1cnn(S(=O)(=O)N(C)C)c1=O)c1ccc(Cl)cc1Br [Compound 11-1076] | 60% | 90% | 60% | 60% | 30% | 90% | 60% | 60%
8 | Cc1cc(Cl)ccc1N(C(=O)n1cnn(S(=O)(=O)N(C)C)c1=O)C(C)C [Compound 11-1079] | 80% | 90% | 80% | 90% | 80% | 90% | 80% | 90%
9 | CC(C)N(C(=O)n1cnn(S(=O)(=O)N(C)C)c1=O)c1ccc(C(F)(F)F)cc1Cl [Compound 11-1084] | 80% | 90% | 80% | 90% | 80% | 90% | 80% | 90%
10 | CC(C)N(Cc1ccc(F)cc1F)C(=O)n1cnn(S(=O)(=O)N(C)C)c1=O [Compound 11-1088] | 80% | 90% | 80% | 90% | 80% | 90% | 80% | 90%

Reference: patent US11076595B2, “1-(n,n-disubstituted carbamoyl) 4-(substituted sulfonyl)triazolin-5-one derivative, 4-(n,n-disubstituted carbamoyl) 1-(substituted sulfonyl)triazolin-5-one derivative, and herbicide containing said derivative as active ingredient” (HOKKO CHEMICAL INDUSTRY CO., LTD., priority 2017, dated 2021)
